Experiment [1] can be described thus: A2780 cell killing – plate reader, dry powder samples, cytotoxicity control, dose response (AID 743046). The format is functional, cell-based.
For a further experiment, the target named is Paired box protein Pax-8 (Homo sapiens, UniProt Q06710). As to the kind of experiment: PAX8 transcriptional activity inhibition in RMG-I – RMG-I cells, luciferase, cherry-pick, dose response (AID 687027).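 Note: luciferase reporter driven by Pax8 target thyroperoxidase promoter measured by SteadyGlo luminescence.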 In kind it is functional, cell-based.
Paired box protein Pax-8, sequence (Q06710 whole entry): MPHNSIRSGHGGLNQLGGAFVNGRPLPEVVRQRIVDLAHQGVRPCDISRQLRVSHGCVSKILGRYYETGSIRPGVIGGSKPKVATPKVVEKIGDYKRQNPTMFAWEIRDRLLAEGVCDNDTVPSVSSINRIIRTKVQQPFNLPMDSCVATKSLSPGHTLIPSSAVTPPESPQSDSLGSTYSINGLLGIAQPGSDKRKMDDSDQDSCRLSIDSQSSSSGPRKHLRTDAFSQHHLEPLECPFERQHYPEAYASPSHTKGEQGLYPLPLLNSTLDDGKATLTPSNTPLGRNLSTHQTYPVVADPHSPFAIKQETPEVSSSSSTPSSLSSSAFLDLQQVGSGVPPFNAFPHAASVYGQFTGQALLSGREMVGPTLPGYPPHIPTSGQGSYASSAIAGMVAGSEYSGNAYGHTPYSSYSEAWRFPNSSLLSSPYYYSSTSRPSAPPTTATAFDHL
Experiment [2] can be described thus: general cell-killing toxicity readout – plate reader, dry powder samples, cytotoxicity control for PAX8 inhibitor project, dose response (AID 743021). In kind it is functional, cell-based.
For another experiment, the system named is Vero. As to the kind of experiment: cells. The format is functional. Particulars: Chlorocebus sabaeus.
Experiment [3] deals with T1, Methionyl-tRNA synthetase, putative (Trypanosoma brucei brucei, UniProt Q38C91). In kind it is functional, Trypanosoma brucei brucei strain 927/4 GUTat10.1.
T1 sequence (Q38C91 whole entry): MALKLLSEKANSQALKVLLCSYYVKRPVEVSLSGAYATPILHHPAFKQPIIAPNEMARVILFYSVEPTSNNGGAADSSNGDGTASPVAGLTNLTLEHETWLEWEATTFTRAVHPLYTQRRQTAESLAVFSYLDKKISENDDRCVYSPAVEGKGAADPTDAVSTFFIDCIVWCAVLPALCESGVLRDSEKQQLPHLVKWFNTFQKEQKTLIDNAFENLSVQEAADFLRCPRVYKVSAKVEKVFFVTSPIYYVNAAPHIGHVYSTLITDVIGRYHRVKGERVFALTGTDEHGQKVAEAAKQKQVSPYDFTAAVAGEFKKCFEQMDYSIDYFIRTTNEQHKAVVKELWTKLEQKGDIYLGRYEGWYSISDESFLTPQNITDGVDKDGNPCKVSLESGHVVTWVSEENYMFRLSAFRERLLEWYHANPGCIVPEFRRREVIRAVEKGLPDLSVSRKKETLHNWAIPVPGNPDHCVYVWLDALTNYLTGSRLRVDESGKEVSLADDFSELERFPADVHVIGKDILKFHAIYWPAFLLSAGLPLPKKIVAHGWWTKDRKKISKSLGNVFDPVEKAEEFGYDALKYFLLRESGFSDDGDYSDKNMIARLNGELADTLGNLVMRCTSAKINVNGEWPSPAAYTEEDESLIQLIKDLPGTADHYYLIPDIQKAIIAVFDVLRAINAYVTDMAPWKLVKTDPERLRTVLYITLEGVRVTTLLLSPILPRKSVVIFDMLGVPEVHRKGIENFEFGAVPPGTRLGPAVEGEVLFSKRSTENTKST
A short description of experiment [4]: Counterscreen for inhibitors of Trypanosoma brucei methionyl tRNA synthetase (MetRS): Luminescence-based cell-based high throughput dose response assay to identify compounds that are cytotoxic to Jurkat human T lymphocyte cells. The format is functional.
A short description of experiment [5]: Late stage counterscreen for inhibitors of Trypanosoma brucei methionyl tRNA synthetase (MetRS): Luminescence-based cell-based high throughput dose response assay to identify compounds that are cytotoxic to Jurkat human T lymphocyte cells. The format is functional. Background: Counterscreens check selectivity or assay interference.
Experiment [6] concerns the target T1, Methionyl-tRNA synthetase, putative. The format is functional, Trypanosoma brucei brucei strain 927/4 GUTat10.1. This is another data set of the same source.
For experiment [7], the target named is T2, Rac GTPase-activating protein 1 (Homo sapiens, UniProt Q9H0H5).
T2 sequence (Q9H0H5 whole entry): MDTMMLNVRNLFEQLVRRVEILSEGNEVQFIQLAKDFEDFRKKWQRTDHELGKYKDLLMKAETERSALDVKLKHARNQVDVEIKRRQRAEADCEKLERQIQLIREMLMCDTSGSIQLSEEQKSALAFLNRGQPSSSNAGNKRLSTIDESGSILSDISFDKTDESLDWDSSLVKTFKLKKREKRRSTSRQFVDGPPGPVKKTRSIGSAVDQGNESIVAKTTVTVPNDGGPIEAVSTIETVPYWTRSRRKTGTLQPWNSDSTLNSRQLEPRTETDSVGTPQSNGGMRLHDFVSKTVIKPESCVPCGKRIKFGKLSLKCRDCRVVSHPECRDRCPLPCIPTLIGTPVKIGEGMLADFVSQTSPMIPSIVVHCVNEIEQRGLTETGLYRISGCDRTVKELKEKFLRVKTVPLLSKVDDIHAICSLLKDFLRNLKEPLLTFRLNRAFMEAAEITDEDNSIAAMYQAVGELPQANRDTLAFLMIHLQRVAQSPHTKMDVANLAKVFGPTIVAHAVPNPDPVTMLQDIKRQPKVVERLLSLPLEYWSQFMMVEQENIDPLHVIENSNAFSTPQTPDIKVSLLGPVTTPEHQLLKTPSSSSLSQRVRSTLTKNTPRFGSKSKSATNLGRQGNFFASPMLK
As to the kind of experiment: blockers of MgcRacGAP-driven Rac1 GTP hydrolysis – biochemical, ADP Hunter fluorescence, primary and confirmatory, confirmation (AID 624330). The format is functional.

Experiment [8] in a line: viability loss in HeLa cells – cytotoxicity control for MgcRacGAP inhibitor project, dose response (AID 624300). In kind it is functional.
Another experiment addresses Large T antigen (Simian virus 40, UniProt P03070). In kind it is functional, Betapolyomavirus macacae.
Experiment [9] deals with Matrix metalloproteinase-14 (Homo sapiens, UniProt P50281). The experiment is described as follows: Dose Response confirmation of uHTS hits for a small molecule inhibitors of MT1-MMP activation in a fluorescence assay set 2. The format is functional.
The next experiment concerns INS1. As to the kind of experiment: INS-1E survival protection against cytokine death – cell-based, luminescence, retest, dose response (AID 449756).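 Note: cell death triggered by IL-1 beta plus TNF-alpha plus IFN-gamma mixture; protective hits raise ATP signal compared with cytokine alone wells.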 The format is functional. Particulars: Rattus norvegicus.
A further experiment deals with Protein Wnt-3a (Mus musculus, UniProt P27467). As to the kind of experiment: antagonism of Wnt3a pathway luciferase reporter – Wnt-LIGHT cells, luminescence, selectivity assay for Gli-SUFU antagonist project, dose response (AID 651570).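 Note: Wnt-LIGHT reporter cells stimulated with conditioned medium from Wnt3a-producing cells.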 In kind it is functional. Particulars: read-out: IC50_Mean. For orientation: In a reporter assay the amount or activity of a reporter protein is the signal.
Protein Wnt-3a, sequence (P27467 whole entry): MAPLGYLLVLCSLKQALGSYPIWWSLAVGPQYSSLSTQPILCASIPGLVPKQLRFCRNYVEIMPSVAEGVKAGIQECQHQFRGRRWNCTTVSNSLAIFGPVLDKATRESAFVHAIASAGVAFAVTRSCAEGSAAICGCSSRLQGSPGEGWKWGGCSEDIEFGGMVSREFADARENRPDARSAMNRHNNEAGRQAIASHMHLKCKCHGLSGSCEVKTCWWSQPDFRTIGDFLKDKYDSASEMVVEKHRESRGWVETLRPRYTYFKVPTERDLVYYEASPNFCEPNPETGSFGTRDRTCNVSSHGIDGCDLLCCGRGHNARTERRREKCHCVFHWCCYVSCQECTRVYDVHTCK

The next experiment concerns the target Beta-galactosidase (Escherichia coli, UniProt Q8VNN2). As to the kind of experiment: Dose response counterscreen for EBI2 assay utilizing the enzyme, b-galactosidase. In kind it is functional.
For experiment [10], the target named is T3, Beta-lactamase (Pseudomonas aeruginosa, UniProt Q79MP6). As to the kind of experiment: inhibition of IMP-1 beta-lactamase activity – biochemical, epi-absorbance, selectivity assay for VIM-2 inhibitor project, dose response (AID 1920).
T3 sequence (Q79MP6 whole entry): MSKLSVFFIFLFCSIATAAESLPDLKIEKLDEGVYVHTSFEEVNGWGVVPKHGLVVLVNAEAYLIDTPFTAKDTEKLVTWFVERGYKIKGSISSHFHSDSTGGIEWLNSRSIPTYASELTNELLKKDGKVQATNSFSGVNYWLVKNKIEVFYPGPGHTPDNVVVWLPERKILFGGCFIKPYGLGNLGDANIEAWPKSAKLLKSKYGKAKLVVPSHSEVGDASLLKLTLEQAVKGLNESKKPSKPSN
For experiment [11], the target named is Beta-lactamase (Salmonella choleraesuis (strain SC-B67), UniProt Q5J463). As to the kind of experiment: Epi-absorbance-based counterscreen for selective VIM-2 inhibitors: dose response biochemical high throughput screening assay to identify inhibitors of TEM-1 serine-beta-lactamase.
Beta-lactamase (Salmonella choleraesuis (strain SC-B67), UniProt Q5J463), sequence (Q5J463 whole entry): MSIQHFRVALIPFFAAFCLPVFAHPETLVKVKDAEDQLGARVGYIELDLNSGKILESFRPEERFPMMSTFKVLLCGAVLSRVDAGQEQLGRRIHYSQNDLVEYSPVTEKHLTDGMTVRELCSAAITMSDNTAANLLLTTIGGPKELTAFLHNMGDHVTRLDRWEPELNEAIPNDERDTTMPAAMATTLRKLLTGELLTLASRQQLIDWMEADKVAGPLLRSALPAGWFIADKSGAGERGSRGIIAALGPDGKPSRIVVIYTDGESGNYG
For experiment [12], the target named is T3, Beta-lactamase. As to the kind of experiment: […] counterscreen for selective VIM-2 inhibitors: dose response biochemical high throughput screening assay to identify inhibitors of IMP-1 metallo-beta-lactamase.
The nature of experiment [13]: CTGF mRNA reduction in DLD1 cells – cell-based, DLD1 colon cancer, RT-qPCR, cherry-pick, dose response (AID 1053122). Particulars: Cancer cell lines. The format is functional.
A short description of experiment [14]: A Cell-Based Confirmatory Screen for Compounds that Inhibit VEEV, TC-83 (7). The format is functional.

The source made the active and inactive calls. Where only a bound is given, the exact number is not on record here.

Large T antigen, sequence (P03070 whole entry): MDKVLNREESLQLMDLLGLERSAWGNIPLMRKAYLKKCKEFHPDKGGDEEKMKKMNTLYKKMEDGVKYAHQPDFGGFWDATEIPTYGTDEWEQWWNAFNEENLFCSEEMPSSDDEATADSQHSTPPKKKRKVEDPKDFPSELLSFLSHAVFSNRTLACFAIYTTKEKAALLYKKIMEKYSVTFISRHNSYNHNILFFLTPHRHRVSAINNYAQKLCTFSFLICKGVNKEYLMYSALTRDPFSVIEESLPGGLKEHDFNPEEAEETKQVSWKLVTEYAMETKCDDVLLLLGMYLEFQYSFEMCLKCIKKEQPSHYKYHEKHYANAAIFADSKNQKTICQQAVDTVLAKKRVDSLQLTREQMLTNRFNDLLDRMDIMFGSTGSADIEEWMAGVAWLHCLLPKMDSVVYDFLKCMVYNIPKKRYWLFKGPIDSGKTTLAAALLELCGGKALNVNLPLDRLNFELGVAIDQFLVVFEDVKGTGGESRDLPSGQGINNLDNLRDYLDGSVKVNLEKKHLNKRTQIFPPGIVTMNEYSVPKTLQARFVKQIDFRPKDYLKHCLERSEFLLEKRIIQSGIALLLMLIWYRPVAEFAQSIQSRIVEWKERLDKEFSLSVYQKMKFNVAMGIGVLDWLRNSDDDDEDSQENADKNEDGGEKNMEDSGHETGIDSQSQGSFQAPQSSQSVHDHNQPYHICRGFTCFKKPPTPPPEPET
Beta-galactosidase, sequence (Q8VNN2 whole entry): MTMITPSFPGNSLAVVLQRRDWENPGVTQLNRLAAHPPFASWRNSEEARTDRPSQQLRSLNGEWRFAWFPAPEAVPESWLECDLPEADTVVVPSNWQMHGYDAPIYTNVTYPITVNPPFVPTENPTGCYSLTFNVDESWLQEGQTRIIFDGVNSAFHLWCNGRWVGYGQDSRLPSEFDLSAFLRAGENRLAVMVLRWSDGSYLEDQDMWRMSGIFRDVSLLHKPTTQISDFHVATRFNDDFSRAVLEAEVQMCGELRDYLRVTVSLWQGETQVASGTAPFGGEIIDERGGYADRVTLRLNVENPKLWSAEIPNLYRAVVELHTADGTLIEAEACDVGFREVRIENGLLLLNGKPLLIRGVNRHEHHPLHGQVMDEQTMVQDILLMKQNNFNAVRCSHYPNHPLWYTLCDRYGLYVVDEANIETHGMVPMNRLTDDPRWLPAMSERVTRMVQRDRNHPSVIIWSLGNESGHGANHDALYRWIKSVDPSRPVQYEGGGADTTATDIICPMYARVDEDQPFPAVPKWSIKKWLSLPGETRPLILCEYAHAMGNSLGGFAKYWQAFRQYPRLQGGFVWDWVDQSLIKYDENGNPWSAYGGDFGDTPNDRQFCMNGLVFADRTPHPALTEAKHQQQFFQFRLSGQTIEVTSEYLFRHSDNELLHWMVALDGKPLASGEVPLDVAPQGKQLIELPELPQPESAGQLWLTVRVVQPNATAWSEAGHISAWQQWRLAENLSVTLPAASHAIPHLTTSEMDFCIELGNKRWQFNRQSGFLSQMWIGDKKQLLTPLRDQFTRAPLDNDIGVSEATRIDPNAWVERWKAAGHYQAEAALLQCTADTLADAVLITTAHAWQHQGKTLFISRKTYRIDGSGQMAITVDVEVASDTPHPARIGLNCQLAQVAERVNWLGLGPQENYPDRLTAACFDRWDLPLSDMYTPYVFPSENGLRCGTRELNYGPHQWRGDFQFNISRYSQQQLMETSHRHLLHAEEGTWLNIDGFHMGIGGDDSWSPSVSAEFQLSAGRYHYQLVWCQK

For orientation: AC50 means the midpoint of the concentration-response curve, whichever way the signal moves. For the molecule `C[C@@H]1CCCCO[C@@H](CN(C)Cc2ccc(Cl)c(Cl)c2)[C@H](C)CN([C@@H](C)CO)C(=O)c2cc(NC(=O)Nc3ccccc3)ccc2O1`, the concentration at half-maximal activity (AC50) is 3.09 µM (active) in experiment [1] and 11.6 µM (active) at Paired box protein Pax-8.
For `CC(C)(C)OC(=O)NCCCC[C@H](NC(=O)c1[nH]cnc1C(=O)Nc1ccc(CNC(=O)OC(C)(C)C)cc1)C(=O)OC(C)(C)C`, the concentration at half-maximal activity (AC50) on Paired box protein Pax-8 was 4.41 µM (active); in experiment [2], 7.72 µM (active).
As a reminder, the CC50 is the concentration giving 50% cytotoxicity. As to `O=C(C[C@H]1C(=O)N(Cc2ccccc2)C[C@@H]1c1ccc(Br)cc1)Nc1ccc(Br)cc1`, the half-maximal cytotoxic concentration (CC50) in the experiment on Vero is > 25 µM (active). For the same molecule, the IC50 in experiment [3] is 1.78 µM (active); in experiment [4], 83.3 µM (inactive); in experiment [5], 66.5 µM (inactive); in [6], 3.46 µM (active).
In the case of `CN1/C(=C\C=N\NC(=O)c2ccc(O)cc2)C(C)(C)c2ccccc21`, the IC50 is 60.3 µM (active) in [7], 20.5 µM (active) at Large T antigen, 31.1 µM (inactive) in experiment [9] and 15.4 µM (active) at Protein Wnt-3a. Also, the CC50 in experiment [8] was 100 µM (active). For the same molecule, the half-maximal activity concentration (AC50) in the experiment with INS1 is 5.43 µM (active).
For the molecule `O=C(COc1ccc(Cl)cc1)N1CCN(Cc2ccc([N+](=O)[O-])cc2)CC1`, the IC50 at Beta-galactosidase is > 80 µM (inactive).
Consider `Cc1cccc(C(=O)Nc2nnc(SCC(=O)NCc3ccco3)s2)c1`, for which the IC50 at Beta-lactamase [10], at Beta-lactamase [11] and on Beta-lactamase [12] was > 59.6 µM (inactive) throughout.
Consider `C[C@H]1CN([C@@H](C)CO)C(=O)c2cccc(NC(=O)c3nc4ccccc4s3)c2O[C@@H]1CN(C)C(=O)Nc1ccc2c(c1)OCO2`, for which, in experiment [13], the AC50 was 1.82 µM (active).
`CN(c1ccc(OCc2ccccc2)cc1)c1nc(=O)c2cccnc2s1`: the IC50 in [14] was 2.33 µM (active).

For the origin of these results see ChEMBL document CHEMBL1201862, “PubChem BioAssay data set” (2004).
